Key:
[1] = test system: F(ab′)2 fragment of a different specificity (kappa); test: STD NMR control with F(ab′)2 fragment of a different specificity; assay type: binding; conditions: 1 μM protein; different variable part from Example 2
Method: The present example was performed with a F(ab′)2 fragment of a different specificity, i.e. a different variable part, from the one used in Example 2 above in order to verify that binding of one the selected compounds still occurred.
The testing was performed as described above in Example 2, but this time using 1 μM protein and using compound AB—0000860 as defined above in table 1. The results were positive, which implies that there is an interaction between AB—0000860 and at least two kappa Fab fragments of different specificities.

human Fab of κ-type = human Fab of κ-type (Homo sapiens, UniProt P01834+P01857); test: STD NMR screening (1D saturation transfer difference) for binding to antibody; parameters: key: 0 no; 1 weak; 2 strong signal; conditions: 0.5 mM ligand
Method: All NMR experiments were performed at 298 K on a Bruker Avance 500 MHz spectrometer. The 1D saturation transfer difference method (STD NMR) was used as screening assay (Mayer M. and Meyer B. 1999. Characterization of Ligand Binding by Saturation Transfer Difference NMR Spectroscopy. Angew. Chem., Int. Ed. 38: 1784-1788) using several antibody concentrations in order to differentiate between compounds with different binding strength (Peng J. W., Lepre C. A., Fejzo J., Abdul-Manan N. and Moore J. M. 2001. Nuclear Magnetic Resonance-Based Approaches for Lead Generation in Drug Discovery. Methods in Enzymology. 338: 202-230). The antibody used was a human Fab of κ-type. In all cases ligands were tested one-by-one. On-resonance irradiation was set at 0 ppm and off-resonance irradiation was set at −40 ppm. Irradiation time in each scan was 2 s and 16 K data points were collected with 1024 scans in total. Compounds for testing were dissolved in DMSOd6 to a concentration of 50 mM and 5 μL of the concentrated ligand solution was added to 495 μL buffer solution. The samples thus consisted of 0.5 mM ligand, 20 mM phosphate buffer, 100 mM NaCl and […] in D2O at pD 7.5, uncorrected reading on pH-meter.
Compounds were initially tested for binding with 0.5 μM antibody. Interesting ligands were further tested with protein concentrations of 100 or 20 nM. A one-dimensional ^1H-spectrum was acquired first and subsequently a saturation transfer difference (STD) spectrum was acquired. Each analysis took 60 minutes on the spectrometer. […] The analysis was setup for automation so that several samples could be analysed over night (usually 10-15 samples/night).
As many as 46 of the virtual screening hits were tested with NMR according to the procedure described above. The results from NMR screening together with additional compound data are compiled in Table 1 below. In total 24 compounds gave a positive result in the first round with the highest antibody concentration (500 nM). These 24 compounds were subjected to a second round with an antibody concentration of 100 nM. The 4 compounds showing the strongest signal in the second round were tested for binding in a third round with 20 nM antibody. Three of the compounds in the third round gave a positive result and where thus designated as the strongest binders to the antibody out of the 46 tested compounds.

[2] = test system: Fab fragment of lambda-type; test: STD NMR control with Fab fragment of lambda-type; assay type: binding; conditions: tested as in Example 2 with lambda-type Fab
Method: Apart from the different Fab fragment, the testing was performed as described above in Example 2.

human Fab of κ-type, sequence (P01857 with tags, fused parts or gaps, other chains not shown): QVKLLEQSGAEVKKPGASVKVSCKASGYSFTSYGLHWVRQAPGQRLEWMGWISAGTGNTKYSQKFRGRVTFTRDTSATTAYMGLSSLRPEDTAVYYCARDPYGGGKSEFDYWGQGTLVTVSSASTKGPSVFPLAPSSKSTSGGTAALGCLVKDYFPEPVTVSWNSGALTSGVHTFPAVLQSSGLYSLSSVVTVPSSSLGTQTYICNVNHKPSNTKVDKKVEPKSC

O=C1CN(c2ccccc2)C(=O)N1c1ccccc1 [AB_0000860, 1,3-diphenylimidazolidine-2,4-dione]
binding to F(ab′)2 fragment (STD NMR result) [1]: positive
NMR signal conc 3 (human Fab of κ-type; 20 nM antibody): 1
NMR signal conc 2 (human Fab of κ-type; 100 nM antibody): 2
NMR signal conc 1 (human Fab of κ-type; 500 nM antibody, 298 K): 2
binding to lambda-type Fab (STD NMR result) [2]: negative
